In patent US9763973B2, “Agent for treating HTLV-I associated myelopathy” (NAGASAKI UNIVERSITY, priority 2011, dated 2017):
Several values for one entry are separate records, joined by “and”; a condition that tells them apart may be missing. Identical values can stand only once.

Tests used:
HTLV-I provirus [1] = conditions: anti-HTLV-I therapy with HDAC inhibitor; cited from earlier work
HTLV-I = conditions: in vitro; non-patent documents 4-6; cited from earlier work
HAM patients [2] = experiment: time for descending stairs (10 stairs), clinical test in HAM patients; type: in vivo, human; conditions: for descending stairs (10 stairs): individual HAM cases, same s.c. regimen; for descending stairs, mean value: mean of tested cases
Source text: (§1) The main symptoms of HAM are motility/gait disorders and the like. As items for the clinical evaluation of these symptoms, lower leg motility function (walking time, time for descending stairs, spasticity, motility dysfunction level etc.) tests and the like can be mentioned. By evaluating these items before and after administration of pentosan polysulfate, the treatment effect of subcutaneous injection of pentosan polysulfate on HAM was verified.
(§2) Subject: 12 cases of HAM patients (9 females, 3 males, age; 49-77 years old, duration of illness; 3-52 years) (Table 1).
(§3) Test method: Sodium pentosan polysulfate was subcutaneously administered by 25 mg for the first time (0 week), 50 mg 1 week later, 100 mg once a week from the second week to the 7th week to the brachial region. The test medicament was used in 1 ml ampoule of sodium pentosan polysulfate (100 mg/ml) supplied by bene pharmaChem of Germany.
(§4) Test items: the subjective symptoms and neurological observations (including spasticity, gait time, time for descending stairs, motility dysfunction level and the like) were checked at the time of screening, week 0 (initial administration), week 8 from the start of treatment (week 1 after completion of treatment) and week 12 from the start of treatment (week 5 after completion of treatment). Similarly, general clinical tests, and immunological (serum soluble IL-2 receptor (sIL-2R), peripheral blood lymphoblastogenesis test) and virological tests (amount of peripheral blood HTLV-I provirus (real-time quantitative PCR method), anti-HTLV-I antibody titer) were performed.

HAM patients [3] = experiment: spasticity on modified Ashworth scale (MAS), clinical test in HAM patients; type: in vivo, human; conditions: individual HAM cases; same s.c. regimen; blank = spasticity absent from the start
Source text: Spasticity is one type of hypertonia, and caused by an abnormal increase in the muscle stretch reflex. Clinically, spasticity is a speed-dependent resistance to stretch, which is defined to be the state wherein the muscle is excessively contracted due to the lack of suppression from the central nervous system, which finally leads to an increase in the reflection. As a measurement method of spasticity, the Ashworth scale is well known, and its modified version by Bohannon is often used clinically (modified Ashworth scale; Bohannon R W, Smith M B: Interrater reliability of a Modified Ashworth Scale of Muscle Spasticity. Phys Ther 67: 206-207, 1987). […]
as §4

anti-HTLV-I antibody = anti-HTLV-I antibody titer (PA method), clinical test in HAM patients; type: in vivo, human; conditions: start vs week 8, week 12 (Table 4)
Procedure: as §2, §3, §4

HAM patients [4] = experiment: 30 m gait time, clinical test in HAM patients; type: in vivo, human; conditions: for 30 m gait: individual HAM cases, same s.c. regimen; for 30 m gait, mean value: mean of tested cases
Source text: as §1, §2, §3, §4

[5] = tested on: peripheral blood lymphoblastogenesis; experiment: lymphoblastogenesis test (stimulation index to PHA), clinical test in HAM patients; type: in vivo, human
Procedure: as §2, §3, §4

HAM patients [6] = experiment: motility dysfunction level (Osame scale), clinical test in HAM patients; type: in vivo, human; conditions: 12 HAM cases; 0-13 scale; changes not found in other cases
Source text: As regards the gait disorder due to HAM-related spastic paraplegia, the gait disorder in the present specification includes not only disorder in walking but also disorder in running and ascending and descending stairs, as well as wheelchair state and bedridden state due to gait function disorders. […]
as §4, with “performed. […]” for “performed.”

HAM patients [7] = experiment: 10 m gait time, clinical test in HAM patients; type: in vivo, human; conditions: for 10 m gait: individual HAM cases, same s.c. regimen; for 10 m gait, mean value: mean of tested cases
Source text: as §1, §2, §3, §4

HTLV-I provirus [8] = experiment: amount of peripheral blood HTLV-I provirus (real-time quantitative PCR), clinical test in HAM patients; type: in vivo, human; conditions: for HTLV-I provirus amount, average: average of 12 cases, average at start 1268; for HTLV-I provirus amount: individual HAM cases, same s.c. regimen
Procedure: Therefore, for virological evaluation, the amount of peripheral blood HTLV-I provirus was monitored, immunological markers predicted to vary depending on a decrease in the provirus was simultaneously monitored, and the effect of pentosan polysulfate on HTLV-I was verified. In addition, the clinical effects (lower leg motility function etc.) were evaluated simultaneously with the measurement of the virus amount, and the correlation between a decrease in the virus amount and the clinical effect was confirmed. Furthermore, the amount of HTLV-I provirus was measured before and after administration of pentosan polysulfate, and a virus, amount decreasing effect of pentosan polysulfate was confirmed, whereby the possibility of providing a causal therapy was verified. Subject: 12 cases of HAM patients (9 females, 3 males, age; 49-77 years old, duration of illness; 3-52 years) (Table 1). Test method: Sodium pentosan polysulfate was subcutaneously administered by 25 mg for the first time (0 week), 50 mg 1 week later, 100 mg once a week from the second week to the 7th week to the brachial region. The test medicament was used in 1 ml ampoule of sodium pentosan polysulfate (100 mg/ml) supplied by bene pharmaChem of Germany.

[9] = tested on: serum soluble IL-2 receptor (sIL-2R); experiment: serum soluble IL-2 receptor (sIL-2R), clinical test in HAM patients; type: in vivo, human; conditions: for sIL-2R: individual HAM cases, same s.c. regimen
Procedure: as §2, §3, §4

HAM patients [10] = conditions: in vivo test; non-patent documents 4 and 5; cited from earlier work
HAM = conditions: recent case-control study; non-patent document 3; cited from earlier work

CCCC(CCC)C(=O)O [valproic acid]
effect on amount of peripheral blood HTLV-I provirus (HTLV-I provirus [1]): transiently and markedly increases the amount of peripheral blood HTLV-I provirus

sodium pentosan polysulfate
HTLV-I infection inhibitory action (HTLV-I): very strong HTLV-I infection inhibitory action at a low dose as compared to heparin | descending stairs (10 stairs) (HAM patients [2]; week 8): 4.8 seconds (2×) and 4 seconds and 17.5 seconds and 9.1 seconds (2×) and 7.4 seconds and 4.1 seconds | descending stairs (10 stairs) (HAM patients [2]; week 12): 4.9 seconds and 4 seconds (3×) and 21.2 seconds and 12.4 seconds and 8.7 seconds and 8.9 seconds | descending stairs, mean value (HAM patients [2]; week 8, mean at start 9.3 (Table 8 in seconds)): 7.6 | descending stairs, mean value (HAM patients [2]; week 12, mean at start 9.3): 8.5 | improvement of spasticity (evaluated on modified Ashworth scale (MAS)) (HAM patients [3]): (+) (evaluated (+) when either lower leg improved by 1 grade or more) | anti-HTLV-I antibody test, significance of change (anti-HTLV-I antibody): significant difference was not observed | 30 m gait (HAM patients [4]; week 8): 22.1 s and 16.8 s and 52.3 s and 20.8 s and 26.7 s and 36.5 s and 20.5 s and 96.5 s and 41.6 s | 30 m gait (HAM patients [4]; week 12): 22 s and 16.6 s and 59.6 s and 19.8 s and 28.6 s and 38.1 s and 20.5 s and 97.5 s and 45.4 s | 30 m gait, mean value (HAM patients [4]; week 8, mean at start 41.7 (Table 7 in seconds)): 37.1 | 30 m gait, mean value (HAM patients [4]; week 12, mean at start 41.7): 38.7 | lymphoblastogenesis test (stimulation index to PHA) ([5]; individual HAM cases (table row = case no.), s.c. 25 mg wk 0, 50 mg wk 1, 100 mg weekly wk 2-7, week 8 from start): 9.2 and 12.4 and 4.7 and 7.9 and 16.3 and 14 and 13.3 and 9.4 and 3.7 and 9.7 and 11.9 and 8.2 | lymphoblastogenesis test (stimulation index to PHA) ([5]; individual HAM cases, same s.c. regimen, week 12 from start (week 5 after completion)): 6.1 and 7.1 and 6.7 and 15 and 18.1 and 24.7 and 17.2 and 9.3 and 4.9 and 9.2 and 12.2 and 6.9 | lymphoblastogenesis test, significance of change ([5]; start vs week 8, week 12 (Table 2)): significant difference was not observed | improvement in motility dysfunction level (HAM patients [6]): only in one case (from 6 to 5 in week 8) | 10 m gait (HAM patients [7]; week 8): 7.5 s and 5.5 s and 15.8 s and 6.4 s and 8.9 s and 11.5 s and 6.5 s and 32.5 s and 13.9 s and 18.5 s | 10 m gait (HAM patients [7]; week 12): 7.1 s and 5.3 s and 16.9 s and 6.2 s and 9.7 s and 12.5 s and 6.5 s and 31.9 s and 15.8 s and 19.9 s | 10 m gait, mean value (HAM patients [7]; week 8, mean at start 14.7 (Table 6 in seconds)): 12.7 | 10 m gait, mean value (HAM patients [7]; week 12, mean at start 14.7): 13.2 | HTLV-I provirus amount, significance of change (HTLV-I provirus [8]; all 12 cases, week 8 from start of treatment): no significant difference | average decrease in amount of HTLV-I provirus (HTLV-I provirus [8]; all 12 cases, week 8 from start of treatment vs start): about 9% | HTLV-I provirus amount, average (HTLV-I provirus [8]; week 8): 1153 copy number/10^4 PBMC | HTLV-I provirus amount, average (HTLV-I provirus [8]; week 12): 1241 copy number/10^4 PBMC | HTLV-I provirus amount (HTLV-I provirus [8]; week 8): 1140 copy number/10^4 PBMC and 648 copy number/10^4 PBMC and 699 copy number/10^4 PBMC and 503 copy number/10^4 PBMC and 999 copy number/10^4 PBMC and 2149 copy number/10^4 PBMC and 479 copy number/10^4 PBMC and 830 copy number/10^4 PBMC and 2030 copy number/10^4 PBMC and 1621 copy number/10^4 PBMC and 837 copy number/10^4 PBMC and 1900 copy number/10^4 PBMC | HTLV-I provirus amount (HTLV-I provirus [8]; week 12): 1750 copy number/10^4 PBMC and 668 copy number/10^4 PBMC and 697 copy number/10^4 PBMC and 471 copy number/10^4 PBMC and 1032 copy number/10^4 PBMC and 2052 copy number/10^4 PBMC and 460 copy number/10^4 PBMC and 767 copy number/10^4 PBMC and 2380 copy number/10^4 PBMC and 1971 copy number/10^4 PBMC and 853 copy number/10^4 PBMC and 1794 copy number/10^4 PBMC | HTLV-I provirus amount, course after completion of administration (HTLV-I provirus [8]; week 5 after completion of administration (week 12)): a tendency of returning to the amount at the start of the treatment | sIL-2R ([9]; week 2): 511 pg/mL and 1462 pg/mL and 1086 pg/mL and 933 pg/mL and 1475 pg/mL and 1741 pg/mL and 1524 pg/mL and 1405 pg/mL and 2264 pg/mL and 1256 pg/mL and 1688 pg/mL and 1474 pg/mL | sIL-2R ([9]; week 8): 577 pg/mL and 1482 pg/mL and 904 pg/mL and 1152 pg/mL and 1475 pg/mL and 1551 pg/mL and 1460 pg/mL and 1954 pg/mL and 2420 pg/mL and 1452 pg/mL and 1774 pg/mL and 1964 pg/mL | sIL-2R ([9]; week 12): 627 pg/mL and 1357 pg/mL and 914 pg/mL and 1073 pg/mL and 1557 pg/mL and 1706 pg/mL and 1716 pg/mL and 1864 pg/mL and 2516 pg/mL and 1480 pg/mL and 1882 pg/mL and 1774 pg/mL | soluble IL-2 receptor (sIL-2R) test, significance of change ([9]; start vs weeks 2, 8, 12 (Table 3)): significant difference was not observed

heparin
HTLV-I infection inhibitory action (HTLV-I): shows an HTLV-I infection inhibitory action | clinical effectiveness for HAM patients (HAM patients [10]): clinically effective for HAM patients

zidovudine+lamivudine
effectiveness as anti-HTLV-I therapy for HAM (HAM): effectiveness thereof was not verified
